The subject of data set [1] is Aspergillus fumigatus ATCC. Briefly: Prophylaxis, neutropenic ICR mouse aspergillosis model, survival. Type of data set: in vivo. The conditions noted are these: 14 days. As for the experimental part: Aspergillosis model: ICR mice (6/group) were rendered neutropenic by cyclophosphamide on Day −3 (6 mg/mouse), Day +1, and Day +4 (2 mg/mouse). Challenge with Aspergillus fumigatus ATCC via IV (100 μL, […] CFU/mouse) occurred on Day 0. Prior to challenge, mice were given one SC dose (5, 10 or 20 mg/kg) of CD101 on Day −5, Day −3, or Day −1. Survival was monitored for 14 days.

Data set [2] deals with Candida albicans ATCC SC5314. Briefly: MIC used for free drug plasma concentration over MIC, candidiasis model. Type of data set: cell-based.
Data set [3] has as its system Candida albicans (ATCC SC5314). The experiment in a line: Disseminated candidiasis in immunocompetent DBA/2 mice, prophylaxis, kidney fungal burden. Format: in vivo. As for the experimental part: Cultures of Candida albicans (ATCC SC5314) were grown overnight at 37° C. in an ambient atmosphere on Sabouraud agar. Cultures were removed from the incubator, aseptically transferred to tubes of phosphate buffered saline (PBS), and an optical density was determined at 600 nm. The cultures were diluted to provide a challenge inoculate of approximately 5.0 log10 CFU per mouse in a volume of 100 μL. Each animal was administered an intravenous (IV) challenge in a volume of 100 IL on Day 0. Instillation of the challenge constituted time 0 hour for the study.
Mice were treated with CD101 one time via subcutaneous (SC) injection prior to challenge on either Day −5, Day −3, Day −1 or Day 0 per Table 3. Micafungin and vehicle controls were administered on Day 0 as per Table 3. Day 0 treatment or control administration occurred immediately following the challenge. Test articles were administered in a volume of 0.5 mL.
The primary endpoint used to assess progress of the infection was mean CFU burden per gram of kidney tissue. At 24 hours post-challenge, mice were humanely euthanized via CO2 overexposure. Kidneys were aseptically removed, weighed, and transferred to sterile tubes containing 2 mL of PBS. Tissues were homogenized with a mini-bead beater. Serial dilutions of the tissue homogenates were plated on Sabouraud dextrose agar plates and incubated at 37° C. for 24-48 hours. CFU/g tissue was determined from colony counts.

Data set [4] deals with C. albicans biofilms. The experiment in a line: Time lapse microscopy of biofilm formation. Type of data set: cell-based, Candida albicans. Conditions: up to 16 h. The text has this:
The effective CD101 concentration obtained from the above experiments was used to monitor its effect on biofilm formation in real time using TLM, which involves capturing real-time images of a single frame at specific time intervals, allowing temporal monitoring of the interactions occurring between the drug and Candida biofilms. Captured images were combined in a time sequence, resulting in an animation depicting the sequence of events that occurred with the passage of time. Briefly, the discs with C. albicans (adhered for 90 min as above) were placed in a 35-mm-diameter glass-bottom Petri dish (MiTek Corp., Ashland, MA). […] Phase contrast images for this interaction were captured immediately from 0 h and followed up to 16-17 h on a Leica DMI 6000 B inverted microscope connected to a Retiga EXi Aqua camera (Q-imaging Vancouver British Columbia). To determine the structural changes in the maturing biofilm, both acquisition and analysis of a series of horizontal (xy) optical sections of the biofilm was done using Metamorph Imaging software (Molecular Devices, Downington, PA). Disc incubated with media alone was used as control.

Data set [5] is described as follows: Previous toxicology studies by the IV route. Format: in vivo, cynomolgus monkeys. Conditions: up to at least 30 mg/kg.
Data set [6] in a line: Pharmacokinetic profile in female rats, SC and IV. Conditions: rat, in vivo. The text has this:
Pharmacokinetic Profile of CD101. The pharmacokinetic (PK) profile of CD101 in female rats (three per group) was characterized.

Data set [7] in a line: Clinical pharmacokinetics in healthy adults (Phase 1). Format: in vivo, human. The conditions noted are these: for average 24 h AUC (free drug) over a 7 day period / free drug AUC0-168: human. The text has this: The in vitro activity of CD101 was previously evaluated as part of the SENTRY international surveillance program using CLSI broth microdilution methodology (M38-A2, M27-A3; Pfaller, et al 2017). […] These susceptibility data were then compared graphically to CD101 plasma concentrations from studies in healthy adults, adjusted for plasma protein binding. Nonclinical efficacy in a murine model of Pneumocystis pneumonia were also considered to evaluate CD101 doses for clinical investigation of antifungal prophylaxis.

Data set [8] relates to A. fumigatus (ATCC 13073). The experiment in a line: Disseminated infection of neutropenic ICR mice, prophylaxis, survival. Type of data set: in vivo, Aspergillus fumigatus. Here is the method:
Inoculum Preparation. A. fumigatus (ATCC 13073) growth was taken from 96 hr potato dextrose agar (PDA) and re-suspended in 0.1% Tween 20. The culture was resuspended in 1 mL cold PBS (>1.0×10^8 CFU/mL, OD620 2.3-2.8). The culture was then diluted in PBS to final cellular densities of 2.0×10^5 CFU/mL. The actual colony counts were determined by plating dilutions on PDA plates to confirm inoculation concentration. The actual inoculum count was 1.85×10^5 CFU/mL.
A. fumigatus (ATCC 13073) disseminated infection (IV). Groups of 6 female ICR mice weighing 22±2 g were used. Animals were immunosuppressed by three intraperitoneal (IP) injections of cyclophosphamide (the first at 6 mg/mouse 3 days before inoculation, the second and third at 2 mg/mouse on Day 1 then Day 4 after inoculation). On Day 0, animals were inoculated (0.1 mL/mouse) by intravenous (IV) injection into the tail vein with A. fumigatus (ATCC 13073), 1.85×10^4 CFU per mouse. CD101 at 5, 10 and 20 mg/kg as prophylaxis was administered subcutaneously (SC) once starting 5, 3 or 1 day before inoculation. […]
A 50 percent or more (≥50%) increase in the survival rate compared to the vehicle control group indicates significant anti-infective activity. The health observations including body weight, hunched posture, ruffled fur, immobility and hypothermia were recorded daily for 14 days. Animals found moribund were to be humanely sacrificed with CO2 asphyxiation in the study.

[9] abbreviates: 5, 10 and 20 mg/kg SC on Day −5, −3 and −1.

Numbered stars: 1 amine (or outer) side, 2 acyl side, 3 side chain; on linkers, the order of the positions; unused ones are H or OH. Bridge positions count the residues as written; N and C are the ends. Square brackets hold non-standard residues; d marks the D form. Peptide text beside a SMILES is read from it. * marks the point of attachment. ξ: configuration not given here. Orn(4R-OH,5R-OCH2CH2NMe3+) = C[N+](C)(C)CCO[C@@H](N[*:3])[C@H](O)C[C@H](N[*:1])C(=O)[*:2]; pTerphenylCO(4''-OnC5H11) = CCCCCOc1ccc(-c2ccc(-c3ccc(C(=O)*)cc3)cc2)cc1; hTyr(3S-OH,4S-OH) = N[C@H](C(=O)O)[C@H](O)[C@@H](O)c1ccc(O)cc1; X1 = C[C@H]1CN([*:1])C(C(=O)[*:2])C1O; Hyp = O=C(O)[C@@H]1C[C@@H](O)CN1; ξT = CC(O)C(N)C(=O)O A value given as a limit tells only on which side of the number the result lay.

In the case of `CCCCCOc1ccc(-c2ccc(-c3ccc(C(=O)N[C@H]4C[C@@H](O)[C@@H](OCC[N+](C)(C)C)NC(=O)C5C(O)[C@@H](C)CN5C(=O)[C@H]([C@@H](C)O)NC(=O)[C@H]([C@H](O)[C@@H](O)c5ccc(O)cc5)NC(=O)[C@@H]5C[C@@H](O)CN5C(=O)C(C(C)O)NC4=O)cc3)cc2)cc1` (stereo partly drawn) [CD101] ({pTerphenylCO(4''-OnC5H11)}-[Orn(4R-OH,5R-OCH2CH2NMe3+)][ξT][Hyp][hTyr(3S-OH,4S-OH)]T[X1]; lactam 1-C), the survival result in data set [1] (5 mg/kg SC) is “increased survival when prophylaxis was given closer to challenge”; in data set [1] (10 and 20 mg/kg SC, any prophylaxis day) it was “All animals in the 10 and 20 mg/kg groups survived”. In addition, the “increases in survival compared with vehicle” value in data set [1] (5, 10 and 20 mg/kg SC on Day −5, −3 or −1) is on record as greater than 50%. Besides, in data set [2], the MIC amounted to 0.03 µg/mL. Also, the “kidney CFU” value in data set [3] (3 mg/kg SC Day −1, all but one animal) is listed as “cleared the infection completely”; in data set [3] (3 mg/kg SC on Day −5 and Day −3 (two doses, inadvertent)) it was “completely cleared the infection”; in data set [3] (10 or 30 mg/kg SC at all pre-challenge time points, 24 hr harvest), “cleared the infection completely”. Besides, the “biofilm formation in real time” value in data set [4] (0.25 μg/ml added to 3 h formed biofilms) is “remained stunted and failed to grow into mature biofilms”; in data set [4] (0.25 μg/ml added to cells adhered 90 min) it was “only adhered cells with stunted growth, which failed to grow into mature biofilms”. Further, in data set [5], the safety and tolerability entry is “safe and well tolerated”. Moreover, in data set [6] (SC), the Tmax fell in the range of 8 to 24 h. Also, the bioavailability in data set [6] (sc, 10 mg/kg) turned out to be 97%. Besides, the half-life in data set [6] (subcutaneous, 10 mg/kg, read-out: t½ (converted)) is 2880 min. Moreover, in data set [7] (400 mg and 200 mg), the “plasma concentrations relative to MEC90” value was “above the MEC90 for A. fumigatus for 7 days”. In data set [7] (Phase 1 subjects, single dose of 400 mg), the “mean unbound plasma concentrations relative to MIC90” value was “above the MIC90 for C. albicans for seven days”. In addition, the “average 24 h AUC (free drug) over a 7 day period” value in data set [7] (200 mg dose) was roughly 2.2 mg·h/L; in data set [7] (400 mg dose), “approximately 4.3 mg*h/L”. The “free drug AUC0-168” value in data set [7] (200 mg dose) worked out at 15.4 mg·h/L; in data set [7] (400 mg dose) it was 30.2 mg·h/L. Moreover, the 14-day survival entry in data set [8] (5 mg/kg SC 1 hr after infection) is recorded as “significant increase in the 14-day survival”. In data set [8] (setting [9]), the “increase in the 14-day survival compared to the vehicle group” value was no less than 50%. Besides, the “symptoms of infection (body weight, hunched posture, ruffled fur, immobility, hypothermia)” value in data set [8] (setting [9]) is recorded as “improved”.

(Values after patent publication US20240076347A1, “METHODS FOR PREVENTING FUNGAL INFECTIONS” (Cidara Therapeutics, Inc., priority 2016, published 2024).)
